Laboratory results: US11124516B2, “Pyrrolo[1,2-A]pyrimidinyl carboxamide compounds and their use in the treatment of medical disorders” (Bial—Biotech Investments, Inc., priority 2016, dated 2021)
In brackets after ≈: the same amount, converted by molar mass.

Key:
[1] = Compound solubility in water; format: physicochemical
[2] = biological target: T1, glucocerebrosidase (Gcase) (Homo sapiens, UniProt P04062); assay: Glucocerebrosidase (Gcase) activation assay, 4-methylumbelliferyl-beta-D-glucopyranoside substrate, fluorescence; format: biochemical; settings: 10 nM GCase, 100 nM saposin C; for activation at 0.1 µM / activation at 1 µM: 0.25 h; for activation at 0.1 µM: pH 4.7, test compound at 0.1 μM, read-out: Percent Gcase Activation 0.1 μM Test Compound; for activation at 1 µM: pH 4.7, test compound at 1.0 μM, read-out: Percent Gcase Activation 1 μM Test Compound
T1 sequence (P04062 40-536): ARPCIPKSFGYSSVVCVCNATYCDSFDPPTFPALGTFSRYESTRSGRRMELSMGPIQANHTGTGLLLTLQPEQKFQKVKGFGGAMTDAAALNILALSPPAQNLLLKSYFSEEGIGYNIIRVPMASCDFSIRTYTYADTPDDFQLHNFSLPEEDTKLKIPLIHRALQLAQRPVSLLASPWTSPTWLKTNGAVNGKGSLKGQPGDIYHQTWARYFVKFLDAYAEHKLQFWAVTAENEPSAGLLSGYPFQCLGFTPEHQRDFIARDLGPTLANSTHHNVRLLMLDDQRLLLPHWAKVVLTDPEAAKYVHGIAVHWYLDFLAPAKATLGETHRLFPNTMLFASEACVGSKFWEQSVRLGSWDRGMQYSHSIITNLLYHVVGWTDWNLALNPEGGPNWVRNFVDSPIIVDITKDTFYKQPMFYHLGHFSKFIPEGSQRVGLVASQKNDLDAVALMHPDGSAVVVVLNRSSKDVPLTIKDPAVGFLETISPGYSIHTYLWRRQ
Procedure: The ability of exemplary compounds to activate glucocerebrosidase (Gcase) was measured.
A 484 μL aliquot of a 1.0 mg/mL solution of phosphatidylserine (PS) (Sigma P7769) in chloroform was evaporated under a stream of nitrogen for 1 hour. The lipid film was dissolved over 4 minutes of vigorous vortexing in 40 mL of 176 mM K2HPO4/50 mM citric acid (pH 4.7) containing 7.5 μL of triton X-100, resulting in a mixed micellar preparation with a composition of 0.32 mM triton and 0.37 mol % PS. 4-Methylumbelliferyl-beta-D-glucopyranoside (ACROS-337025000) was dissolved in the micellar solution to a final concentration of 2 mM for use as the reaction substrate.
Test compounds were diluted to the desired concentrations with dimethylsulfoxide (DMSO) from 10 mM stocks, and 0.41 μL of the DMSO compound mixture was added to 100 μL of micellar solution containing 10 nM GCase and 100 nM saposin C (Enzo ALX-201-262-C050). Pre-incubation was allowed to occur for 30 minutes at room temperature, after which the reaction was initiated by combining 25 μL of substrate solution with 25 μL of compound/GCase/saposin mixture. The reaction proceeded for 15 minutes at room temperature and was stopped by adding 150 μL of 1M glycine, pH 12.5. The endpoint of the reaction was monitored by measuring fluorescence intensity (excitation: 365 nm; emission: 440 nm) on a SpectraMax i3 instrument (Molecular Devices). Test compounds were screened at 1.0 and 0.1 μM final concentration, and subsequent 8-point dose response curves were obtained using 3-fold dilutions from a maximum final concentration of 5 μM.
For experiments in which the test compound was used at a concentration of 1.0 μM, the symbol “+” indicates less than 30% Gcase activation; the symbol “++” indicates Gcase activation in the range of 30% up to 60%; and the symbol “+++” indicates Gcase activation greater than 60%. For experiments in which the test compound was used at a concentration of 0.1 μM, the symbol “*” indicates less than 10% Gcase activation; the symbol “**” indicates Gcase activation in the range of 10% up to 20%; and the symbol “***” indicates greater than 20% Gcase activation.

Row | solubility [1] | activation at 0.1 µM [2] | activation at 1 µM [2] | Compound Solubility in Water [1] | Percent Gcase Activation 0.1 μM Test Compound ([2]; test compound at 0.1 μM, pH 4.7) | Percent Gcase Activation 1 μM Test Compound ([2]; test compound at 1.0 μM, pH 4.7) | SMILES
1 | 0.1 µg/mL (≈ 0.296 µM) | < 10% | < 30% |  |  |  | Cc1c(-c2ccc(F)cc2)cnc2c(C(=O)N[C@@H](C)C3CC3)ccn12 [III-51]
2 | 1.7 µg/mL (≈ 4.84 µM) | < 10% | < 30% |  |  |  | Cc1nc2c(C(=O)N[C@@H](C)C3CC3)ccn2c(C)c1-c1ccc(F)cc1 [III-52]
3 | 2.9 µg/mL (≈ 7.75 µM) | > 20% | > 60% |  |  |  | Cc1cc(-c2cccnc2)nc2c(C(=O)NC(C3CC3)C(F)(F)F)ccn12 (stereo not drawn) [III-55]
4 | 11.6 µg/mL (≈ 28.5 µM) | 10 to 20% | > 60% |  |  |  | Cc1cc(-c2cccnc2)nc2c(C(=O)N[C@H]3CC[C@H](OC(C)(C)C)CC3)ccn12 [III-56]
5 | 14.9 µg/mL (≈ 38 µM) | 10 to 20% | > 60% |  |  |  | CCCO[C@H]1CC[C@H](NC(=O)c2ccn3c(C)cc(-c4cccnc4)nc23)CC1 [III-57]
6 | 1.9 µg/mL (≈ 4.67 µM) | > 20% | > 60% |  |  |  | Cc1cc(-c2cccnc2)nc2c(C(=O)N[C@H]3CC[C@H](OCC(C)C)CC3)ccn12 [III-58]
7 | 1.9 µg/mL (≈ 4.67 µM) | > 20% | > 60% |  |  |  | CCCCO[C@H]1CC[C@H](NC(=O)c2ccn3c(C)cc(-c4cccnc4)nc23)CC1 [III-59]
8 | 1.3 µg/mL (≈ 3.09 µM) | > 20% | > 60% |  |  |  | Cc1cc(-c2cccnc2)nc2c(C(=O)N[C@H]3CC[C@H](OCC(C)(C)C)CC3)ccn12 [III-60]
9 | 1.2 µg/mL (≈ 3.41 µM) | > 20% | > 60% |  |  |  | C#Cc1ccc(NC(=O)c2ccn3c(C)cc(-c4cccnc4)nc23)cc1 [III-61]
10 | 5.1 µg/mL (≈ 17 µM) | > 20% | > 60% |  |  |  | Cc1cc(C)n2ccc(C(=O)NC(C)C3CCCCC3)c2n1 (stereo not drawn) [III-62]
11 |  |  |  | 4.2 µg/mL | *** (greater than 20% Gcase activation) | +++ (Gcase activation greater than 60%) | Cc1cc(C)n2ccc(C(=O)NC(C)C3CCCCC3)c2n1 (stereo not drawn) [III-63]
12 | 21.7 µg/mL (≈ 84.3 µM) | > 20% | > 60% |  |  |  | Cc1cc(C)n2ccc(C(=O)N[C@@H](C)C3CC3)c2n1 [III-64]
13 | 20.7 µg/mL (≈ 80.4 µM) | < 10% | 30 to 60% |  |  |  | Cc1cc(C)n2ccc(C(=O)N[C@H](C)C3CC3)c2n1 [III-65]
14 | 1.5 µg/mL (≈ 4.06 µM) | < 10% | < 30% |  |  |  | Cc1nc2c(C(=O)N[C@H]3CC[C@H](OC(C)(C)C)CC3)ccn2c2c1CCC2 [III-70]
15 | 8 µg/mL (≈ 21.7 µM) | < 10% | 30 to 60% |  |  |  | Cc1c2c(nc3c(C(=O)N[C@H]4CC[C@H](OC(C)(C)C)CC4)ccn13)CCC2 [III-71]
16 | 1.5 µg/mL (≈ 5.04 µM) | < 10% | > 60% |  |  |  | Cc1nc2c(C(=O)NC(C)(C)C3CC3)ccn2c2c1CCC2 [III-72]
17 | 0.9 µg/mL (≈ 3.03 µM) | 10 to 20% | > 60% |  |  |  | Cc1c2c(nc3c(C(=O)NC(C)(C)C4CC4)ccn13)CCC2 [III-73]
18 | 24.8 µg/mL (≈ 96.4 µM) | < 10% | < 30% |  |  |  | Cc1cc(C)n2ccc(C(=O)NC(=O)C3CC3)c2n1 [III-74]
19 | 2.5 µg/mL (≈ 6.45 µM) | > 20% | > 60% |  |  |  | COCc1cc(C)n2ccc(C(=O)N[C@H]3CC[C@H](OCC(C)(C)C)CC3)c2n1 [IV-1]
20 | 4.2 µg/mL (≈ 10.8 µM) | > 20% | > 60% |  |  |  | COCc1cc(C)nc2c(C(=O)N[C@H]3CC[C@H](OCC(C)(C)C)CC3)ccn12 [IV-2]
21 | 15.9 µg/mL (≈ 42.6 µM) | > 20% | > 60% |  |  |  | COCc1cc(C)nc2c(C(=O)N[C@H]3CC[C@H](OCC(C)C)CC3)ccn12 [IV-3]

Row | solubility [1] | activation at 0.1 µM [2] | activation at 1 µM [2] | Compound Solubility in Water [1] | Percent Gcase Activation 0.1 μM Test Compound ([2]; test compound at 0.1 μM, pH 4.7) | Percent Gcase Activation 1 μM Test Compound ([2]; test compound at 1.0 μM, pH 4.7) | SMILES
22 | 16.9 µg/mL (≈ 45.2 µM) | 10 to 20% | > 60% |  |  |  | COCc1cc(C)n2ccc(C(=O)N[C@H]3CC[C@H](OCC(C)C)CC3)c2n1 [IV-4]
23 | 8.1 µg/mL (≈ 22.7 µM) | 10 to 20% | > 60% |  |  |  | CCc1cc(C)nc2c(C(=O)N[C@H]3CC[C@H](OC(C)(C)C)CC3)ccn12 [IV-5]
24 | 7.9 µg/mL (≈ 22.1 µM) | 10 to 20% | > 60% |  |  |  | CCc1cc(C)n2ccc(C(=O)N[C@H]3CC[C@H](OC(C)(C)C)CC3)c2n1 [IV-6]
25 | 0.4 µg/mL (≈ 0.961 µM) | > 20% | > 60% |  |  |  | Cc1cc(-c2cccc(C(N)=O)c2)nc2c(C(=O)NC(C3CC3)C(F)(F)F)ccn12 (stereo not drawn) [IV-7]
26 | 0.9 µg/mL (≈ 2.37 µM) | 10 to 20% | > 60% |  |  |  | Cc1cc(C(F)F)n2ccc(C(=O)N[C@H]3CC[C@H](OC(C)(C)C)CC3)c2n1 [IV-8]
27 | 1.5 µg/mL (≈ 3.95 µM) | > 20% | > 60% |  |  |  | Cc1cc(C(F)F)n2ccc(C(=O)N[C@H]3CC[C@H](OCC(C)C)CC3)c2n1 [IV-9]
28 | 0.3 µg/mL (≈ 0.762 µM) | > 20% | > 60% |  |  |  | Cc1cc(C(F)F)n2ccc(C(=O)N[C@H]3CC[C@H](OCC(C)(C)C)CC3)c2n1 [IV-10]
29 | 9 µg/mL (≈ 24.6 µM) | > 20% | > 60% |  |  |  | CCCO[C@H]1CC[C@H](NC(=O)c2ccn3c(C(F)F)cc(C)nc23)CC1 [IV-11]
30 | 18.5 µg/mL (≈ 50.6 µM) | 10 to 20% | > 60% |  |  |  | CCCO[C@H]1CC[C@H](NC(=O)c2ccn3c(C)cc(C(F)F)nc23)CC1 [IV-12]
31 | 5 µg/mL (≈ 13.2 µM) | > 20% | > 60% |  |  |  | Cc1cc(C(F)F)nc2c(C(=O)N[C@H]3CC[C@H](OCC(C)C)CC3)ccn12 [IV-13]
32 | 0.8 µg/mL (≈ 2.03 µM) | > 20% | > 60% |  |  |  | Cc1cc(C(F)F)nc2c(C(=O)N[C@H]3CC[C@H](OCC(C)(C)C)CC3)ccn12 [IV-14]
33 | 8.4 µg/mL (≈ 20.3 µM) | 10 to 20% | > 60% |  |  |  | CCCCO[C@H]1CC[C@H](NC(=O)c2ccn3c(C)cc(N4CCOCC4)nc23)CC1 [IV-15]
34 | 3.1 µg/mL (≈ 9.96 µM) | > 20% | > 60% |  |  |  | Cc1cc(C)n2ccc(C(=O)NC(C3CC3)C(F)(F)F)c2n1 (stereo not drawn) [IV-16]
35 | 21.6 µg/mL (≈ 78.5 µM) | 10 to 20% | > 60% |  |  |  | Cc1cc(C)n2c(F)cc(C(=O)N[C@@H](C)C3CC3)c2n1 [IV-17]
36 | 2.1 µg/mL (≈ 5.75 µM) | > 20% | > 60% |  |  |  | Cc1cc(C)n2ccc(C(=O)NC(C)(C)c3ccc4c(c3)OCCO4)c2n1 [IV-19]
37 | 2.5 µg/mL (≈ 8.03 µM) | > 20% | > 60% |  |  |  | Cc1cc(C)n2ccc(C(=O)N[C@@H](C)c3ccccc3F)c2n1 [IV-20]
38 | 3.3 µg/mL (≈ 10.6 µM) | > 20% | > 60% |  |  |  | Cc1cc(C)n2ccc(C(=O)N[C@@H](C)c3ccc(F)cc3)c2n1 [IV-21]
39 | 1.3 µg/mL (≈ 3.8 µM) | 10 to 20% | > 60% |  |  |  | Cc1cc(C)n2ccc(C(=O)NC(C)(C)c3ccccc3Cl)c2n1 [IV-22]
40 |  | 10 to 20% | > 60% | 0.2 µg/mL |  |  | Cc1cc(C)n2ccc(C(=O)NC(C)c3cccc4ccccc34)c2n1 (stereo not drawn) [IV-23]
41 | 5.3 µg/mL (≈ 16.4 µM) | < 10% | > 60% |  |  |  | COc1ccc([C@@H](C)NC(=O)c2ccn3c(C)cc(C)nc23)cc1 [IV-24]
42 | 0.6 µg/mL (≈ 1.83 µM) | > 20% | > 60% |  |  |  | Cc1cc(C)n2ccc(C(=O)N[C@H](C)c3ccc(Cl)cc3)c2n1 [IV-25]
